One assay relates to neosubstrate degradation. The settings on record: relative to lenalidomide; cited from earlier work.
Another assay deals with MOLM-13 cells. The assay can be described thus: Cell proliferation assay (Cell Titer-Glo, 72 h). Conditions: Homo sapiens, 72 h incubation, * = cytostatic 50%. Type of assay: cell-based. The protocol:
MOLM-13 cell line was purchased from the Leibniz Institute DSMZ (ACC 554). The cells were cultured according to recommendations in RPMI 1640 cell culture media with 20% FBS (DSMZ). Exponentially growing MOLM-13 cells were plated at 1250 cells per well in Corning 8804BC white 384-well assay plates and incubated overnight at 37° C. in a humidified 5% CO2 incubator. Compounds were transferred to the assay plate from a dose-response plate using a Pintool on a Biomek FXP Laboratory Automation Workstation (Beckman Coulter). Cytotoxicity was determined following 72 hours of incubation using Promega Cell Titer Glo reagent according to the manufacturer's recommendation. Luminescence was measured on an Envision plate reader (Perkin-Elmer).
Compounds were screened in human cancer cell lines and each cell line was cultured in the complete medium recommended by the vendor and seeded in Corning 8804BC white 384-well assay plates at density of 1250 cells per well for MOLM-13 cells. After overnight incubation at 37° C. in a humidified 5% CO2 incubator, cells were treated with compounds in dose-response format using a Pintool on a Biomek FXP Laboratory Automation Workstation (Beckman Coulter). After 72h incubation, cell proliferation was assessed using Cell Titer-Glo (CTG) luminescent cell viability assay (Promega) according to the manufacturer's instruction. Luminescence signal was measured using an Envision plate reader (Perkin-Elmer).
(In ATP-based viability assays light output follows the ATP content of the culture.)

A further assay has as its target 6XHis-CRBN-DDB1 protein (Homo sapiens (Human), UniProt Q96SW2). The experiment in a line: CRBN fluorescence polarization assay (competitive, Cy5-O-Len probe). The format is binding. The settings on record: 6XHis-CRBN-DDB1 200 nM, Cy5-O-Len probe 30 nM, 1 hour; mean of three determinations; read-out: CRBN FP (IC50). As for the experimental part:
In this competitive fluorescent polarization assay Cy5 conjugated lenalidomide analog (Cy5—O-Len)^1 was used as a fluorescent probe. 6XHis-CRBN-DDB1 protein (200 nM) and Cy5—O-Len probe (30 nM) were combined in 20 mM HEPES pH 7, 150 mM NaCl, 0.005% Tween-20 assay buffer. 20 μL of this assay cocktail was dispensed into wells of Corning 3821 black 384-well plates. Compounds were transferred to the assay plate from a dose-response plate using a Pintool on a Biomek FXP Laboratory Automation Workstation (Beckman Coulter). The plates were incubated in the dark for 1 hour at room temperature and then read on an Envision plate reader (PerkinElmer, Massachusetts, USA). IC50 values were determined using a proprietary software RISE (Robust Investigation of Screening Experiments), developed in house on the Pipeline Pilot platform (Biovia, v. 17.2.0). Data represent the mean of three independent determinations.
Background: In fluorescence polarisation assays a small probe gives low polarisation when free and higher when bound to something large.

Bounds are passed on as bounds.

The EC50 is the concentration at which the effect is half-maximal. The term IC50 denotes the concentration that gives 50% inhibition.

In the case of `O=C1CC[C@H](N2Cc3c(OCc4ccc(CN5CCOCC5)cc4)cccc3C2=O)C(=O)N1` [CC-220], in the assay on neosubstrate degradation, the “fold more potent in cells than lenalidomide” value is listed as 10 fold.

Take `O=C1CCC(N2Cc3c(CNC(=O)c4cc(F)ccc4F)cccc3C2=O)C(=O)N1` (stereo not drawn) [Compound 37, N-((2-(2,6-dioxopiperidin-3-yl)-1-oxoisoindolin-4-yl)methyl)-2,5-difluorobenzamide]: the EC50 in the assay with MOLM-13 cells was more than 10 µM. In addition, the half-maximal inhibitory concentration (IC50) on 6XHis-CRBN-DDB1 protein lay in the range of 1 to 10 µM. For `O=C1CCC(N2Cc3c(CNC(=O)c4ccccc4Nc4ccccc4)cccc3C2=O)C(=O)N1` (stereo not drawn) [Compound 45, N-((2-(2,6-dioxopiperidin-3-yl)-1-oxoisoindolin-4-yl)methyl)-2-(phenylamino)benzamide], in that order: less than 1 µM and 1 to 10 µM. Take `O=C1CCC(N2Cc3c(CNC(=O)c4cccc(C(F)(F)F)c4)cccc3C2=O)C(=O)N1` (stereo not drawn) [Compound 12, N-((2-(2,6-dioxopiperidin-3-yl)-1-oxoisoindolin-4-yl)methyl)-3-(trifluoromethyl)benzamide]: the 50% effective concentration (EC50) in the assay with MOLM-13 cells is less than 1 µM. In addition, the IC50 on 6XHis-CRBN-DDB1 protein fell in the range of 1 to 10 µM. Take `O=C1CCC(N2Cc3c(CNC(=O)c4ccc(Cl)cc4F)cccc3C2=O)C(=O)N1` (stereo not drawn) [Compound 36, 4-chloro-N-((2-(2,6-dioxopiperidin-3-yl)-1-oxoisoindolin-4-yl)methyl)-2-fluorobenzamide]: in the assay with MOLM-13 cells, the EC50 is less than 1 µM. For the same compound, at 6XHis-CRBN-DDB1 protein, the IC50 is less than 1 µM.

These data come from patent US20250122166A1, “SUBSTITUTED N-((2-(2,6-DIOXOPIPERIDIN-3-YL)-1-OXOISOINDOLIN-4-YL)METHYL)BENZAMIDE ANALOGS AS MODULATORS OF CEREBLON PROTEIN” (ST. JUDE CHILDREN'S RESEARCH HOSPITAL, INC., priority 2021, published 2025).
